Reference: US20070292488A1, “METHOD FOR TREATMENT OF WOUND TREATMENT USING AGANOCIDES” (priority 2006, published 2007)

Legend:
[1] = system: human secondary intention wound; experiment: Vacuum-assisted wound treatment combined with intermittent instillation of aganocide (HOCl) on a human wound; type: in vivo; details: 0.45% NaCl, pH about 4
Protocol: A human secondary intention wound approximately 3-4 cm in diameter is fitted with a polyurethane sponge, pore size 400-600 microns cut to the size of the wound and twice the thickness of the wound and covered with an adhesive film, per instructions on the vacuum system. The outlet is connected to an IV bag (500 ml) with 0.01% HOCl, 0.45% NaCl, and pH of about 4 and is elevated to between 0.1 and 1 meter above the wound. A 1-cm hole is punctured in the adhesive film, and a second adhesive film is used to cover the hole, with the second outlet connected to the vacuum pump.
Each cycle consists of three phases: a 2-hour pumping phase when the vacuum (125 mm Hg negative pressure) is connected and the IV bag is disconnected; […] and the IV bag is connected and the aganocide is applied to the wound; […] IV bag are disconnected.
Each treatment has about 24 cycles and starts with a pumping phase and proceeds for 48 hours. When the treatment is completed, the dressings are changed and the treatment is repeated until full granulation has been promoted and the granulation tissue is within the level of the skin, approximately 30 to 100 days, depending on the depth of the original wound. […]

[2] = system: test bacteria; experiment: Comparison of hypochlorous acid with Dakin's solution (antimicrobial activity, therapeutic index, time kill); details: in the regimen described
From the text: “Time kill” refers to an in vitro measure of how fast a given antimicrobial can kill test bacteria.
This means that the time to wound closure may be reduced using hypochlorous acid.

## OCl [hypochlorous acid]
[1]; Example 1: 0.01% HOCl, 1 second instilling, 15 second holding
  wound healing results of combination regimen compared with vacuum alone or aganocide alone: superior
[1]; Example 2: 0.01% HOCl, 5 second instilling, 5 minute holding
  wound healing results of combination regimen compared with vacuum alone or aganocide alone: superior
[2]
  antimicrobial activity in comparison with Dakin's solution: improved
  therapeutic index in comparison with Dakin's solution: improved
  time kill in comparison with Dakin's solution: improved
